In ChEMBL document CHEMBL5244281, “Tackling multidrug-resistant Staphylococcus aureus by natural products and their analogues acting as NorA efflux pump inhibitors” (Bioorg Med Chem, 2023):
Converted amounts (≈) assume the structure as drawn.

Columns and labels:
[1] = molecular target: T1, Quinolone resistance protein NorA (Staphylococcus aureus) (UniProt P0A0J7); assay: Modulation of norfloxacin-induced inhibition of NorA efflux pump in Staphylococcus aureus 1199B overexpressing NorA efflux pump assessed as reduction in norfloxacin MIC at 1/4 times of MIC by resazurin based assay
T1 sequence (whole entry): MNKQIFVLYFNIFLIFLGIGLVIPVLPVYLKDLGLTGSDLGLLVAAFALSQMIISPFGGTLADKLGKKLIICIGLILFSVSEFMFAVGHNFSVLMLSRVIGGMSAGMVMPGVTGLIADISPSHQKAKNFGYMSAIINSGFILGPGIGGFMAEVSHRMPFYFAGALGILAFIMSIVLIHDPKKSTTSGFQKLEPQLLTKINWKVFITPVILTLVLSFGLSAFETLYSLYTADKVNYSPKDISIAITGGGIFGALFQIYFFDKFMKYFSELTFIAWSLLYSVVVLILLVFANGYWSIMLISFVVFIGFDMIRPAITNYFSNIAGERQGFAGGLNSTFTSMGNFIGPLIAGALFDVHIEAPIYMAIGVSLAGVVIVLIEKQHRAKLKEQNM

[2] = molecular target: T1, Quinolone resistance protein NorA (Staphylococcus aureus); assay: Modulation of EtBr -induced inhibition of NorA efflux pump in Staphylococcus aureus 1199B overexpressing NorA efflux pump assessed as reduction in EtBr MIC at 1/4 times of MIC using EtBr as substrate by resazurin based assay
[3] = tested on: Staphylococcus aureus; assay: Antibacterial activity against norfloxacin resistant Staphylococcus aureus 1199 assessed as bacterial growth inhibition incubated for 24 hrs by resazurin based broth microdilution method; type: functional
[4] = tested on: Staphylococcus aureus; assay: Antibacterial activity against norfloxacin resistant Staphylococcus aureus 1199B overexpressing NorA assessed as bacterial growth inhibition incubated for 24 hrs by resazurin based broth microdilution method; type: functional
[5] = tested on: Staphylococcus aureus; assay: Antibacterial activity against Staphylococcus aureus 1199B overexpressing NorA assessed as bacterial growth inhibition incubated for 18 hrs by MTT assay; type: functional
[6] = tested on: Staphylococcus aureus; assay: Antibacterial activity against tetracycline-resistant Staphylococcus aureus XU212 assessed as bacterial growth inhibition incubated for 18 hrs by MTT assay; type: functional
[7] = tested on: Staphylococcus aureus; assay: Antibacterial activity against Staphylococcus aureus ATCC25923 assessed as bacterial growth inhibition incubated for 18 hrs by MTT assay; type: functional
[8] = tested on: Staphylococcus aureus; assay: Antibacterial activity against Staphylococcus aureus RN4220 assessed as bacterial growth inhibition incubated for 18 hrs by MTT assay; type: functional
[9] = tested on: Staphylococcus aureus; assay: Antibacterial activity against Staphylococcus aureus EMRSA-15 assessed as bacterial growth inhibition incubated for 18 hrs by MTT assay; type: functional
[10] = tested on: Staphylococcus aureus; assay: Antibacterial activity against norfloxacin resistant Staphylococcus aureus IS-58 overexpressing TetK efflux pump gene assessed as bacterial growth inhibition incubated for 18 to 24 hrs by NCCLS protocol based microdilution method; type: functional; conditions: time 18-24 hrs
[11] = tested on: Staphylococcus aureus; assay: Antibacterial activity against norfloxacin resistant Staphylococcus aureus RN4220 overexpressing MsrA efflux pump gene assessed as bacterial growth inhibition incubated for 18 to 24 hrs by NCCLS protocol based microdilution method; type: functional; conditions: time 18-24 hrs
[12] = tested on: Staphylococcus aureus; assay: Antibacterial activity against norfloxacin resistant Staphylococcus aureus 1199B overexpressing NorA efflux pump gene assessed as bacterial growth inhibition incubated for 18 to 24 hrs by NCCLS protocol based microdilution method; type: functional; conditions: time 18-24 hrs
[13] = tested on: Staphylococcus aureus; assay: Antibacterial activity against Staphylococcus aureus 1199 assessed as bacterial growth inhibition incubated for 24 hrs by broth microdilution method; type: functional
[14] = tested on: Staphylococcus aureus; assay: Antibacterial activity against Staphylococcus aureus 1199B overexpressing NorA efflux gene assessed as bacterial growth inhibition incubated for 24 hrs by broth microdilution method; type: functional
[15] = tested on: Staphylococcus aureus; assay: Antibacterial activity against NorA knockout Staphylococcus aureus K1758 assessed as bacterial growth inhibition incubated for 24 hrs by broth microdilution method; type: functional
[16] = tested on: Staphylococcus aureus; assay: Synergistic antimicrobial activity against Staphylococcus aureus 1199B overexpressing NorA efflux pump assessed as reduction in norfloxacin MIC incubated for 24 hrs by MTT colorimetric assay (Rvb= […]); type: functional
[17] = tested on: Staphylococcus aureus; assay: Synergistic antimicrobial activity against Staphylococcus aureus 1199B overexpressing NorA efflux pump assessed as fractional inhibitory concentration index incubated for 24 hrs by checkerboard method; type: functional
[18] = tested on: Staphylococcus aureus; assay: Antibacterial activity against norfloxacin resistant Staphylococcus aureus 1199B overexpressing NorA assessed as bacterial growth inhibition incubated for 24 hrs by resazurin based microdilution assay; type: functional
[19] = tested on: Staphylococcus aureus; assay: Antibacterial activity against Staphylococcus aureus 1199B expressing NorA efflux protein assessed as bacterial growth inhibition incubated for 24 hrs by resazurin based microdilution assay; type: functional
[20] = tested on: Staphylococcus aureus; assay: Antibacterial activity against wild type Staphylococcus aureus 1199 assessed as bacterial growth inhibition incubated for 24 hrs by resazurin based microdilution assay; type: functional
[21] = molecular target: T1, Quinolone resistance protein NorA (Staphylococcus aureus); assay: Inhibition of NorA efflux pump in Staphylococcus aureus 1199B overexpressing NorA efflux pump assessed as norfloxacin MIC at 1/8 times of MIC using norfloxacin as substrate incubated for 24 hrs by resazurin based assay (Rvb= 406.37 ug/ml)
[22] = molecular target: T1, Quinolone resistance protein NorA (Staphylococcus aureus); assay: Inhibition of NorA efflux pump in Staphylococcus aureus 1199 assessed as norfloxacin MIC at 1/8 times of MIC using norfloxacin as substrate incubated for 24 hrs by resazurin based assay (Rvb= 32 ug/ml)
[23] = molecular target: T1, Quinolone resistance protein NorA (Staphylococcus aureus); assay: Inhibition of NorA efflux pump in Staphylococcus aureus 1199B overexpressing NorA efflux pump assessed as EtBr MIC at 1/8 times of MIC using EtBr as substrate incubated for 24 hrs by resazurin based assay (Rvb= 256 ug/ml)
[24] = molecular target: T1, Quinolone resistance protein NorA (Staphylococcus aureus); assay: Inhibition of NorA efflux pump in Staphylococcus aureus 1199 assessed as EtBr MIC at 1/8 times of MIC using EtBr as substrate incubated for 24 hrs by resazurin based assay (Rvb= 256 ug/ml)
[25] = tested on: Staphylococcus aureus; assay: Antibacterial activity against wild type Staphylococcus aureus ATCC 25923 assessed as bacterial growth inhibition incubated for 24 hrs by resazurin based microdilution assay; type: functional
[26] = tested on: Staphylococcus aureus; assay: Antibacterial activity against Staphylococcus aureus IS-58 overexpressing TetK efflux protein assessed as bacterial growth inhibition incubated for 24 hrs by resazurin based microdilution assay; type: functional
[27] = tested on: Staphylococcus aureus; assay: Antibacterial activity against Staphylococcus aureus RN4220 overexpressing […] efflux protein assessed as bacterial growth inhibition incubated for 24 hrs by resazurin based microdilution assay; type: functional
[28] = tested on: Staphylococcus aureus; assay: Antibacterial activity against Staphylococcus aureus 1199B overexpressing NorA efflux protein assessed as bacterial growth inhibition incubated for 24 hrs by resazurin based microdilution assay; type: functional
[29] = tested on: Staphylococcus aureus; assay: Antibacterial activity against Staphylococcus aureus K2068 overexpressing mepA gene assessed as bacterial growth inhibition incubated for 24 hrs by resazurin based microdilution assay; type: functional
[30] = tested on: Staphylococcus aureus; assay: Antibacterial activity against Staphylococcus aureus K4414 overexpressing qacA/B gene assessed as bacterial growth inhibition incubated for 24 hrs by resazurin based microdilution assay; type: functional
[31] = tested on: Staphylococcus aureus; assay: Antibacterial activity against Staphylococcus aureus K4100 overexpressing qacC gene assessed as bacterial growth inhibition incubated for 24 hrs by resazurin based microdilution assay; type: functional

`O=C(CCc1ccc(O)cc1)c1c(O)cc(O)cc1O` showed an MIC [1] of 32 µg/mL and an MIC [2] of 8 µg/mL.

In the case of `C=CCc1ccc(O)c(OC)c1` [EUGENOL], the MIC [3] is reported as 102 µg/mL (≈ 619 µM) and the MIC [4] is reported as 128 µg/mL (≈ 780 µM).

`COc1ccc(-c2cc(=O)c3ccc(O)cc3o2)cc1O` gave an MIC [5] of 32 µg/mL (≈ 113 µM), an MIC [6] of 32 µg/mL (≈ 113 µM) and an MIC [7] of 32 µg/mL (≈ 113 µM). For the same compound, the MIC [8] was 32 µg/mL (≈ 113 µM) and the MIC [9] was 32 µg/mL (≈ 113 µM).

With `CC(C)=CCOc1c2occc2cc2ccc(=O)oc12` [PENTOSALEN] the MIC [10] was over 256 µg/mL, the MIC [11] was over 256 µg/mL and the MIC [12] was over 256 µg/mL.

Compound `O=c1c(O)c(-c2ccccc2)oc2cc(O)cc(O)c12` [GALANGIN] has an MIC [13] of 125 µg/mL (≈ 463 µM), an MIC [14] of 250 µg/mL (≈ 925 µM) and an MIC [15] of 125 µg/mL (≈ 463 µM).

For `C/C=C/c1cc(OC)c2c(c1)[C@H](C)[C@@H](c1ccc(OC)c(OC)c1)O2`, the MIC [16] was 8 µg/mL and the “fractional inhibitory concentration index (FICI)” value [17] was 0.13.

Compound `C=CCc1cc(OC)c(O)c(OC)c1` [METHOXYEUGENOL] has an MIC [3] of 32 µg/mL (≈ 165 µM) and an MIC [4] of 128 µg/mL (≈ 659 µM).

Compound `CC[n+]1c(-c2ccccc2)c2cc(N)ccc2c2ccc(N)cc21.[Br-]` [HOMIDIUM BROMIDE] has an MIC [18] of 32 µg/mL.

`CC(C)=CC1=C(NCCO)C(=O)c2ccccc2C1=O` gave an MIC [19] of at least 1020 µg/mL, an MIC [20] of at least 1020 µg/mL and an MIC [21] of 50.8 µg/mL. For the same compound, the MIC [22] was 2.51 µg/mL, the MIC [23] was 128 µg/mL and the MIC [24] was 32 µg/mL.

`COc1ccc(-c2cc(=O)c3c(O)cc(O[C@@H]4O[C@H](CO[C@@H]5O[C@@H](C)[C@H](O)[C@@H](O)[C@H]5O)[C@@H](O)[C@H](O)[C@H]4O)cc3o2)cc1O` was tested, and the MIC [1] was 32 µg/mL.

`O=C1C[C@@H](c2ccc(O)cc2)Oc2cc(O)cc(O)c21` gave an MIC [1] of 32 µg/mL and an MIC [2] of 16 µg/mL.

Work on `COc1ccc([C@@H]2CC(=O)c3c(O)cc(O)cc3O2)cc1O` yielded an MIC [1] of 8 µg/mL and an MIC [2] of 16 µg/mL.

For `COc1c2occc2cc2ccc(=O)oc12` [METHOXSALEN], the MIC [10] was over 256 µg/mL, the MIC [11] was over 256 µg/mL and the MIC [12] was over 256 µg/mL.

For `O=c1c(O)c(-c2ccc(O)cc2)oc2cc(O)cc(O)c12` [KAEMPFEROL], the MIC [13] was 125 µg/mL (≈ 437 µM), the MIC [14] was 250 µg/mL (≈ 873 µM) and the MIC [15] was 125 µg/mL (≈ 437 µM).

`COc1ccc(/C=C/C(=O)c2ccccc2)cc1OC` showed an MIC [25] of 100 µg/mL (≈ 373 µM), an MIC [26] of 100 µg/mL (≈ 373 µM) and an MIC [27] of 100 µg/mL (≈ 373 µM). For the same compound, the MIC [28] was 100 µg/mL (≈ 373 µM), the MIC [29] was 100 µg/mL (≈ 373 µM) and the MIC [30] was 100 µg/mL (≈ 373 µM). For the same compound, the MIC [31] was 100 µg/mL (≈ 373 µM).

In the case of `CC1(C)C=Cc2c(cc3occ(-c4ccc(O)cc4)c(=O)c3c2O)O1` [ALPINUMISOFLAVONE], the MIC [5] is reported as 32 µg/mL (≈ 95.1 µM), the MIC [6] is reported as 32 µg/mL (≈ 95.1 µM) and the MIC [7] is reported as 32 µg/mL (≈ 95.1 µM). For the same compound, the MIC [8] was 32 µg/mL (≈ 95.1 µM) and the MIC [9] was 32 µg/mL (≈ 95.1 µM).
